Source: patent US6927221B2, “Tricyclic fused heterocyclic compound, process for preparing it and medicament comprising it” (Eisai Co., Ltd., priority 1999, dated 2005)
Counter-ions that a name gives are not always drawn. Like-named read-outs stand apart in the source and are kept apart here.

Experiments:
human CRFR1 = target: T1, human CRFR1 (Homo sapiens, UniProt P34998); assay: CRFR binding experiment (125I-sauvagine, SPA); details: membrane fraction of cell expressing human CRFR1, 40 pM 125I-sauvagine, room temperature, two hours; read-out: CRF1 receptor binding ability IC50
T1 construct: The full length gene of CRFR^1 was obtained by a PCT method using human brain (QuickClone™ Clontech) as cDNA library; expressed in transfected cells; host or cells: Hek 283 cell (so in the source)
T1 sequence (P34998 24-415): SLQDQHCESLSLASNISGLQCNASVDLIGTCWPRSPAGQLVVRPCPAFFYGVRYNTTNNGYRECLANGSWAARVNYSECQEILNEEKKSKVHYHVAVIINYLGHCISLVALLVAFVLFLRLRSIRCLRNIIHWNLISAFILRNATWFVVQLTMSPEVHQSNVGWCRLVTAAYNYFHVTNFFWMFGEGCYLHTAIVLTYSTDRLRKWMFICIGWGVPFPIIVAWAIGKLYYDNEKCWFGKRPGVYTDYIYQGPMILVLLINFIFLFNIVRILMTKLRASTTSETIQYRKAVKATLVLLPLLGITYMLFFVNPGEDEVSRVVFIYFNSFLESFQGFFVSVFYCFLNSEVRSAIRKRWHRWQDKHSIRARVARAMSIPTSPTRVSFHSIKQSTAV
Procedure: • (1) Preparation of CRFR expressing cell: As an experiment material for the CRFR binding experiment, a membrane fraction of a cell which expressed highly human CRFR1. CRFR expressing cell was prepared as follows. The full length gene of CRFR^1 was obtained by a PCT method using human brain (QuickClone™ Clontech) as cDNA library. The resulting DNA fragment was inserted into a cloning vector to confirm the base sequence. A cDNA having the correct base sequence was ligated to an expression vector (pcDNA3.1™, Invitrogen). A gene was inserted into […] cell and grown in a cell culturing solution containing G418 (1 mg/ml) to obtain a resistance cell, into which a CRFR^1 expression vector was cloned by a limitation diluting method. A clone having the high binding ability of membrane and sauvagine per unit protein was finally selected from cloned cells by a binding experiment shown by the method shown below, which was used for an experiment. • (2) Preparation of a membrane fraction: G418 resistant cells into which a gene for CRFR^1 was introduced were collected, and cell rupture was performed by an ultrasound generator with a sonicate buffer (D-PBS-10 mM MgCl2, 2 mM EGTA). A suspension after ultrasound rupture was centrifuged (46,000×g, 10 minutes), the sediment thereof was further resuspended with a sonicate buffer, and the same procedures were related. Finally, the sediment was suspended in a binding buffer (D-PBS-10 mM MgCl2, 2 mM EGTA, 1.5% BSA, 0.15 mM bacitracin, 1× protease inhibitor cocktail (COMPLETE™, Boehringer), to adjust the protein concentration at 1.6 mg/ml, which was used as a membrane fraction. • (3) Binding experiment: Binding experiment with sauvagine was performed using a 96-well plate and SP™ (Amersham pharmacia) An experiment was according to the specification of SPA beads. […] of a membrane fraction protein, 0.5 mg of beads and 40 pM ^125I-sauvaging (Amersham pharmacia) were allowed to stand at room temperature for two hours in the presence a test compound, centrifuged (1,000×g, 5 minutes), and then the radioactivity of each well was measured with TopCount™ (Packard). • (4) Calculation of the binding ability: The radioactivity as the non-specific binding when 1,000-fold excessive amount of non-radioactive sauvagine was added was substacted from each value, the radioactivity where no test material is added is regarded as 100% (control), and each value is shown by % (% of control). The concentration showing 50% in % (% of control) was obtained from a graph where the concentration test material is plotted on an abscissa axis and % (% of control) is plotted on a coordinate axis and IC50 value was calculated (Table 1)

AtT-20 cell = assay: Experiment for measuring adenylate cyclase activity using AtT-20 cell (CRF-induced cAMP); type: cell-based, mouse; details: 1 mM IBMX, intracellular cAMP by ELISA, read-out: adenylate cyclase ability IC50
Excerpt: Experiment for Measuring Adenyrate Cyclase the Activity Using AtT-20 Cell
• (1) Test procedures: AtT-20 cell is a cell strain derived from mouse pytuitari gland tumor, it is known that the intracellular adenyrate cyclase system is activated in response to corticotrophin release hormone (CRF), to produce cyclic AMP (cAMP), releasing adrenocortical hormone (ACTH) (Biochem. Piophys. Res. Com. 106. 1364-1371, 1982). In this experiment, the cell 1×10^5) suspended in D-MEM medium (0.1% FPS), seeded on a 96-well plate, a phosphodiesterase inhibitor (IBMX, Calbiochem) was added to the final concentration of 1 mM, which was cultured at 37° C. for 30 minutes. A diluted test compound solution and CRF (30 nM) were added, which was further cultured at 37° C. for 10 minutes, cells were collected by centrifugation (500×g, 5 minutes), cells were lysed with a lysis buffer (Amersham Pharmacia), and an amount of intracellular cAMP produced was quantitated using the ELISA method. For ELISA, cAMP EIA system (BIOTRAK™ Amersham Pharmacia) was used. • (2) Calculation of adenyrate cyclase activity inhibitory ability: Treatment of the resulting data was carried out as follows. An amount of cAMP produced by a cell to which 30 nM CRF was added is regarded as 100% (control) and a value of each sample is expressed as % (% of control). The concentration showing 50% in % (% of control) was obtained from a graph where the concentration of a test material is plotted on an abscissa axis and % (% of control) is plotted on a coordinate and IC50 value was calculated (Table 2).

| SMILES | IC50 (human CRFR1) | IC50 (AtT-20 cell; Mus musculus, AtT20, 30 nM CRF) | IC50 (AtT-20 cell; 30 nM CRF) |
| --- | --- | --- | --- |
| CCC(CC)N1CCCc2c(C)nc3c(-c4c(C)cc(C)cc4C)c(C)nn3c21 [Example 12, 9-(1-Ethylpropyl)-3-mesityl-2,5-dimethyl-6,7,8,9-tetrahydropyrazolo[1,5-a]pyrido[3,2-e]pyrimidine] | 1500 nM |  |  |
| CCC(CC)N1CCc2c(C)nc3c(-c4ccc(Cl)cc4Cl)c(C)nn3c21 [Example 33, 3-(2,4-Dichlorophenyl)-8-(1 ethylpropyl)-2,5-dimethyl-7,8-dihydro-6H-pyrazolo[1,5-a]pyrrolo[3,2-e]pyrimidine hydrochloride] | 1000 nM |  |  |
| CCCC(CCC)N1CCc2c(C)nc3c(-c4cnc(N(C)C)cc4C)c(C)nn3c21 [Example 3, N-5-[2,5-Dimethyl-8-(1-propylbutyl)-7,8-dihydro-6H-pyrazolo[1,5-a]pyrrolo[3,2-e]pyrimidin-3-yl]-4-methyl-2-pyridyl-N,N-dimethylamine hydrochloride] | 600 nM |  |  |
| CCc1nn2c3c(c(C)nc2c1-c1c(C)cc(C)cc1C)CCN3C(CC)CC [Example 23, 2-Ethyl-8-(1-ethylpropyl)-3-mesityl-5-methyl-7,8-dihydro-6H-pyrazolo[1,5-a]pyrrolo[3,2-e]pyrimidine] | 1500 nM |  |  |
| Cc1cc(C)c(-c2c(C)nn3c4c(c(C)nc23)CCN4CC2CC2)c(C)c1 [Example 38, 8-(Cyclopropylmethyl)-3-mesityl-2,5-dimethyl-7,8-dihydro-6H-pyrazolo[1,5-a]pyrrolo[3,2-e]pyrimidine hydrochloride] | 3000 nM |  |  |
| CCC(CC)N1c2c(c(C)nc3c(-c4c(C)cc(C)cc4C)c(C)nn23)CC1C (stereo not shown) [Example 13, 8-(1-Ethylpropyl)-mesityl-2,5,7-trimethyl-7,8-dihydro-6H-pyrazolo[1,5-a]pyrrolo[3,2-e]pyrimidine] | 2500 nM |  | 1500 nM |
| Cc1cc(C)c(-c2c(C)nn3c4c(c(C)nc23)CCN4C2CCCCCC2)c(C)c1 [Example 45, 8-Cycloheptyl-3-mesityl-2,5-dimethyl-7,8-dihydro)-6H-pyrazolo[1,5-a]pyrrolo[3,2-e]pyrimidine hydrochloride] | 1500 nM |  |  |
| COCCN1c2c(c(C)nc3c(-c4c(C)cc(C)cc4C)c(C)nn23)CC1C (stereo not shown) [Example 44, 3-Mesityl-8-(2-methoxyethyl)-2,5,7-trimethyl-7,5-dihydro-6H-pyrazolo[1,5-a]pyrrolo[3,2-e]pyrimidine hydrochloride] | 400 nM |  |  |
| CCC(CC)n1ccc2c(C)nc3c(-c4c(C)cc(C)cc4C)c(C)nn3c21 [Example 67, 8-(1-Ethylpropyl)-3-mesityl-2,5-dimethyl-8H-pyrazolo[1,5-a]pyrrolo[3,2-e]pyrimidine] | 200 nM | 2000 nM |  |

The next lines start with results.

| IC50 (human CRFR1) | IC50 (AtT-20 cell; Mus musculus, AtT20, 30 nM CRF) | SMILES | IC50 (AtT-20 cell; 30 nM CRF) |
| --- | --- | --- | --- |
| 500 nM |  | CCCCN1CCc2c(C)nc3c(-c4c(C)cc(C)cc4C)c(C)nn3c21 [Example 2, 8-Butyl-3-mesityl-2,5-dimethyl-7,8-dihydro-pyrazolo[1,5-a]pyrrolo[3,2-e]pyrimidine hydrochloride] |  |
| 1000 nM |  | CCCC(CCC)N1CCc2c(C)nc3c(-c4c(C)cc(C)cc4C)c(C)nn3c21 [Example 6, 3-Mesityl-2,5-dimethyl-8-(1-propylbutyl)-7,8-dihydro-6H-pyrazolo[1,5-a]pyrrolo[3,2]-pyrimidine hydrochloride] |  |
| 100 nM | 900 nM | CCC(CC)N1CCc2c(C)nc3c(-c4c(C)cc(C)cc4C)c(C)nn3c21 [Example 1, 8-(1-Ethylpropyl)-3-mesityl-2,5-dimethyl-7,8-dihydro-6H-pyrazolo[1,5-a]pyrrolo[3,2-e]pyrimidine hydrochloride] |  |
| 1400 nM |  | CCCC(=O)N1CCc2c(C)nc3c(-c4c(C)cc(C)cc4C)c(C)nn3c21 [Example 74, 1-(3-Mesityl-2,5-dimethyl-7,8-dihydro-6H-pyrazolo[1,5-a]pyrrolo[3,2-e]pyrimidin-8-yl)-1-butanone] |  |
